This note sets out measurements from PubChem BioAssay AID1996.

As a reminder, the kinetic solubility is solubility judged after dilution from a stock solution rather than from solid.

Converted amounts (≈) assume the structure as drawn.

For the data set the following is noted: buffer; pH 7.4; 200.0 µM.
On to `O=C(COC(=O)c1ccc(F)c(S(=O)(=O)N2CCOCC2)c1)NCCc1ccc(F)cc1`, for which the kinetic solubility is 17.5 µg/mL (≈ 37.4 µM). The result for `CCc1ccc(C(=O)OCC(=O)N2CCCCCC2)cc1` reads 14.5 µg/mL (≈ 50.1 µM). The result for `O=S(=O)(c1ccc(Cl)cc1)N1CCN(c2ccccn2)CC1` reads 0.5 µg/mL (≈ 1.48 µM); that for `CCCCCC(O)(CCN1CCCCC1)c1ccccc1.Cl` (stereo unspecified), more than 48.9 µg/mL; that for `Cc1ccc2nc(-c3ccccc3NC(=O)CCC(=O)O)c(=O)[nH]c2c1`, more than 52.7 µg/mL. The result for `Cc1ccc(N2CC(=O)N(CC(=O)O)C2=O)cc1` reads more than 37.2 µg/mL; that for `Cl.NCC(O)c1ccc(O)cc1` (stereo unspecified), more than 28.4 µg/mL; that for `CCN(CC)S(=O)(=O)c1cccc(C(=O)NC(C(=O)NCCc2ccccn2)C(C)C)c1` (stereo unspecified), more than 69.1 µg/mL. In turn, `N#Cc1cccc(NC(=O)COC(=O)c2ccc[n+]([O-])c2)c1` displayed a solubility (kinetic) of more than 44.6 µg/mL. Then `O=C(CNC(=O)c1ccccc1)NCc1nc2ccccc2[nH]1`, with 39.4 µg/mL (≈ 128 µM). Then `CC(C)(C)C1COc2ccccc2N1C(=O)c1cccc(Cl)c1` (stereo unspecified), with less than 0.7 µg/mL.

On to `O=C(NCCCNC(=O)c1c(F)cccc1F)c1c(F)cccc1F`, for which the kinetic solubility is more than 53.1 µg/mL. Then `COc1ccc2oc(=O)c(C(=O)NC(C)c3ccccc3)cc2c1` (stereo unspecified), with less than 0.7 µg/mL.

The molecule `COc1ccc(Cl)cc1NC(=O)Cn1c(=O)oc2ccccc21` registered a kinetic solubility of 1.2 µg/mL (≈ 3.61 µM). Then `Cc1c(Cl)cnc(NC(=O)COC(=O)C2CC2)c1Cl`, with more than 45.5 µg/mL; and `CC(C)Oc1ccc(C(=O)NCCNC(=O)c2ccco2)cc1`, with more than 47.5 µg/mL; and `O=C(Cc1c(F)cccc1Cl)Nc1ccccn1`, with 30.2 µg/mL (≈ 114 µM). Consider `C=CCOc1ccccc1CN1CCC(Cc2ccccc2)CC1`, for which the solubility (kinetic) is 31.7 µg/mL (≈ 98.6 µM). The solubility kinetic values of the last two molecules are within 1.5-fold of each other.

As for `Cc1ccc(S(=O)(=O)N2CCN(C(=O)COC(=O)COc3cccc(C(F)(F)F)c3)CC2)c(C)c1`, the solubility (kinetic) amounted to 8.7 µg/mL (≈ 16.9 µM). Against the preceding molecule, the solubility kinetic is about 3.6-fold lower.

`CSc1cccc(NC(=S)N(C(C)C)C(C)c2ccccn2)c1` (stereo unspecified) displayed a kinetic solubility of 9.6 µg/mL (≈ 27.8 µM).

In turn, `CC(C)CC(=O)Nc1ccc(S(=O)(=O)Nc2nccs2)cc1` yielded a solubility (kinetic) of more than 50.9 µg/mL. Then `CC(=O)Nc1ccc(S(=O)(=O)N(C)CC(=O)NCCOc2ccccc2)cc1`, with more than 60.8 µg/mL; and `COCC(=O)Nc1ccc(N2CCN(c3ccccc3)CC2)c(F)c1`, with 2 µg/mL (≈ 5.82 µM); and `C=C(C)c1cccc(C(C)(C)NC(=O)Nc2nncs2)c1`, with more than 45.4 µg/mL. The result for `Cc1ccc(S(=O)(=O)Nc2cc(C)on2)cc1` reads 28.1 µg/mL (≈ 111 µM). `S=c1[nH]nc(C2(c3ccccc3)CCCC2)o1` came in with a kinetic solubility of more than 36.9 µg/mL.

On to `Cc1cc(C)n2nc(C(=O)N/N=C/c3cn(C)nc3C)nc2n1`, for which the solubility (kinetic) is more than 46.8 µg/mL.

On to `O=C(COc1ccc([N+](=O)[O-])cc1Cl)N1CCc2ccccc21`, for which the kinetic solubility stood at 2.4 µg/mL (≈ 7.21 µM). Then `N#C/C(=C\c1ccccc1Br)C(=O)NC1CC1`, with more than 43.7 µg/mL; and `O=C(CCNC(=O)c1ccccc1)NCCc1ccc(Cl)cc1`, with 6.9 µg/mL (≈ 20.9 µM).

With `O=C(NCCc1cccs1)c1cccs1`, the kinetic solubility is more than 35.6 µg/mL.

`COc1cc(C2NC(=O)c3ccccc3O2)ccc1OC(C)C` (stereo unspecified) returned a kinetic solubility of 5.9 µg/mL (≈ 18.8 µM).

`Cc1csc2c(N3CCCCC3)ncnc12` returned a kinetic solubility of more than 35 µg/mL. Then `CCC(CC)C(=O)Nc1ccc(S(=O)(=O)Nc2nccs2)cc1`, with more than 53 µg/mL; and `COc1nc(-c2ccccc2)ncc1S(=O)(=O)c1ccccc1`, with less than 0.3 µg/mL. The result for `Cc1occc1C(=O)N1CCN(c2ccc(Cl)cc2)CC1` reads 43.6 µg/mL (≈ 143 µM); that for `CCOC(=O)c1ccc(N=c2ssnc2Cl)cc1`, 4.8 µg/mL (≈ 16 µM). The molecule `CCC(Cc1ccccc1)NC(=O)CCc1ccccc1` (stereo unspecified) gave a solubility (kinetic) of more than 42.2 µg/mL. Then `Cc1cccc(CSc2nc3c(c(-c4cccs4)c2C#N)CN(C)CC3)c1`, with 5.8 µg/mL (≈ 14.8 µM); and `Cc1ccccc1CC(=O)NCCN1CCOCC1`, with more than 39.4 µg/mL. The result for `Cc1ccc(CSC2=NCCN2C(=O)C(C)Oc2ccccc2)cc1` (stereo unspecified) reads 4.4 µg/mL (≈ 12.4 µM).

On to `COc1cc(-n2c(C)nc3cc(C(=O)O)ccc32)cc(OC)c1OC`, for which the kinetic solubility is more than 51.4 µg/mL.

`COc1ccc(NC(=O)Nc2cccnc2)cc1` showed a solubility (kinetic) of more than 36.5 µg/mL. The result for `CCOc1ccc(C(=O)OCC(=O)N2CCCC2)cc1OCC` reads 38.3 µg/mL (≈ 119 µM).

`CC(=O)Oc1ccc2nc(-c3ccco3)oc(=O)c2c1` came in with a solubility (kinetic) of 27.7 µg/mL (≈ 102 µM). The result for `COc1cccc2[nH]c3c(=O)n(CCCN4CCOCC4)cnc3c12` reads more than 51.4 µg/mL; that for `O=C(COC(=O)c1ccc(O)cc1)Nc1ccc2c(c1)OCO2`, 15.6 µg/mL (≈ 49.5 µM). Then `CC(C)C1N(C(=O)N(C)C)CCN1S(=O)(=O)c1ccccc1` (stereo unspecified), with more than 48.8 µg/mL; and `COC(=O)c1ccc(N2CCN(C(=O)C3CC3)CC2)c([N+](=O)[O-])c1`, with more than 50 µg/mL; and `Cc1ccc(S(=O)(=O)N2CCN(CC(=O)N3CCOCC3)CC2)cc1`, with 54.7 µg/mL (≈ 149 µM).

`COc1cc2[nH]c(C(=O)NCC3CCCO3)cc2c(OC)c1OC` (stereo unspecified) returned a kinetic solubility of more than 50.2 µg/mL.
